How the values were obtained:
human Kv7.2+3 = target: T1, human Kv7.2+3 (Homo sapiens, UniProt O43525+O43526); assay: FLIPR-based characterization of Kv7.2+3 modulators (thallium (I) sensitive BTC fluorescence assay); type: cell-based; settings: HEK293 cells over-expressing human Kv7.2+3, mean of at least two test runs; for EC50: Tl+ influx, FLIPR, 50% of channel activity compared to retigabine control responses; for Emax: maximal response relative to the reference (retigabine) response, read-out: Efficacy
T1 construct: expressed in transfected cells; host or cells: HEK293
Description: FLIPR-Based Characterization of Kv7.2+3 Modulators
This experiment determines the ability of a test compound to modulate the activity of Kv7.2+3 channels heterologously expressed in human HEK293 cells. The ability is determined relative to retigabine. The activity is determined using a standard thallium (I) sensitive assay, e.g. using a fluorometric method in a Fluorescent Image Plate Reader (FLIPR) as described below in more detail.
Full concentration/response curves are generated and EC50 values are calculated based on max values. EC50 values (Effective Concentration) represent the concentration of the test substance, at which 50% of the channel activity is obtained when compared to retigabine control responses. Maximal response determined relative to the reference (retigabine) response is calculated.
Human HEK293 cells over-expressing human Kv7.2+3 are grown in culture medium (DMEM supplemented with 10% foetal bovine serum), in polystyrene culture flasks ([…]) in a humidified atmosphere of 5% CO2 in air, at 37° C. Cell confluence should be 80-90% on day of plating. Cells are rinsed with 4 ml of PBS (phosphate buffered saline) and incubated 2 min with 1 ml of Trypsin-EDTA. After addition of 25 ml of culture medium cells are re-suspended by trituration with a 25 ml pipette.
The cells are seeded at a density of ˜3×10^6 cells/ml (25 μl/well) in blackwalled, clear bottom, 384-well plates pre-treated with 0.01 g/l poly-D-lysin (20 μl/well for ≧30 min). Plated cells were allowed to proliferate for 24 h before loading with dye.
BTC-AM (50 mg, Invitrogen) is added 25.5 μl DMSO. The BTC-AM stock solution (2 mM) is diluted to a final concentration of 2 μM in Cl^− free assay buffer (in mM: 140 Na^+-gluconate, 2.5 K^+-gluconate, 6 Ca2^+-gluconate, 1 Mg^2+gluconate, 5 glucose, 10 HEPES, pH 7.3) containing 2 μM ouabain, 2 mM amaranth and 1 mM tartrazine.
The culture medium is aspirated from the wells, the cells are washed thrice in Cl^− free assay buffer, and 25 μl of the BTC-AM loading solution is added to each well. The cells are incubated at 37° C. for 60 min.
After the loading period, the TI^+-sensitive BTC fluorescence signal is measured over time using a FLIPR.
• Temperature: Room temp. • First addition: 12 μl test or control compound after 15 sec at a rate of 30 μl/sec and starting height of 20 μl • Second addition: 12 μl stimulus buffer (Cl^− free assay buffer supplemented with 1 mM Tl2SO4, 5 mM K2SO4 as well as the quenchers amaranth (2 mM) and tartrazine (1 mM)) is added after an additional 3 minutes at a rate of 30 μl/sec and starting height of 30 μl • Reading intervals: First sequence—3 sec×5, 2 sec×24 and 5 sec×25 Second sequence—1 sec×5, 2 sec×24 and 5 sec×36 Addition plates (compound plate and stimulus plate) are placed in positions 2 and 3, respectively. Cell plates are placed in position 1 and run using the “KCNQ (two additions)” program. FLIPR will then take the appropriate measurements in accordance with the interval settings above. Fluorescence obtained after stimulation is corrected for the mean basal fluorescence (in Cl^− free assay buffer).
Full concentration/response curves are generated and EC50 values (“Effective Concentration”; the concentration at which 50% of the channel activity is obtained when compared to retigabine control responses) are calculated based on peak values. Maximal response determined relative to the reference (retigabine) response is calculated. Data are given as mean of at least two test runs

SMILES | EC50 (human Kv7.2+3) | Emax (human Kv7.2+3) | melting point
Cc1cc(N2CCc3ncccc3C2)nc(N2CCCC2)c1NC(=O)c1cccc(F)c1 [Compound 1.3, N-[6-(7,8-Dihydro-5H-[1,6]naphthyridin-6-yl)-4-methyl-2-pyrrolidin-1-yl-pyridin-3-yl]-3-fluoro-benzamide] | 5000 nM | 24% | 
Cc1cc(N2CCc3ncccc3C2)nc(N2CCC(F)(F)CC2)c1NC(=O)c1ncoc1-c1ccccc1 [Compound 1.17, N-[2-(4,4-difluoro-1-piperidyl)-6-(7,8-dihydro-5H-1,6-naphthyridin-6-yl)-4-methyl-3-pyridyl]-5-phenyl-oxazole-4-carboxamide] | 4600 nM | 90% | 
Cc1cc(N2CCc3ncccc3C2)nc(N2CCC(F)(F)CC2)c1NC(=O)Cc1cc(F)cc(F)c1 [Compound 1.7, 2-(3,5-difluorophenyl)-N-[2-(4,4-difluoro-1-piperidyl)-6-(7,8-dihydro-5H-1,6-naphthyridin-6-yl)-4-methyl-3-pyridyl]-acetamide] | 220 nM | 104% | 
Cc1cc(N2CCc3ncccc3C2)nc(N2CCC(F)(F)CC2)c1NC(=O)c1nccn1C [Compound 1.8, N-[2-(4,4-difluoro-1-piperidyl)-6-(7,8-dihydro-5H-1,6-naphthyridin-6-yl)-4-methyl-3-pyridyl]-1-methyl-imidazole-2-carboxamide] | 1300 nM | 114% | 
Cc1cc(N2CCc3ncccc3C2)nc(N2CCCC2)c1NC(=O)CC(C)(C)C [Compound 1.2, N-[6-(7,8-Dihydro-5H-[1,6]naphthyridin-6-yl)-4-methyl-2-pyrrolidin-1-yl-pyridin-3-yl]-3,3-dimethyl-butyramide] | 1200 nM | 121% | 
Cc1cc(N2CCc3ncccc3C2)nc(N2CCC(F)(F)CC2)c1NC(=O)c1cnsc1C [Compound 1.19, N-[2-(4,4-difluoro-1-piperidyl)-6-(7,8-dihydro-5H-1,6-naphthyridin-6-yl)-4-methyl-3-pyridyl]-5-methyl-isothiazole-4-carboxamide] | 5200 nM | 71% | 
CCOC(=O)Nc1c(C)cc(N2CCc3ncccc3C2)nc1N1CCC(F)(F)CC1 [Compound 1.20, ethyl N-[2-(4,4-difluoro-1-piperidyl)-6-(7,8-dihydro-5H-1,6-naphthyridin-6-yl)-4-methyl-3-pyridyl]-carbamate] | 280 nM | 100% | 
Cc1cc(N2CCc3ncccc3C2)nc(N2CCCC2)c1NC(=O)Cc1cc(F)cc(F)c1 [Compound 1.1, 2-(3,5-Difluoro-phenyl)-N-[6-(7,8-dihydro-5H-[1,6]naphthyridin-6-yl)-4-methyl-2-pyrrolidin-1-yl-pyridin-3-yl]-acetamide] | 67 nM | 96% | 203 to 206 °C
Cc1cc(N2CCc3ncccc3C2)nc(N2CCC(F)(F)CC2)c1NC(=O)CC1CC1 [Compound 1.13, 2-cyclopropyl-N-[2-(4,4-difluoro-1-piperidyl)-6-(7,8-dihydro-5H-1,6-naphthyridin-6-yl)-4-methyl-3-pyridyl]-acetamide] | 1100 nM | 109% | 
Cc1cc(N2CCc3ncccc3C2)nc(N2CC[C@@H](F)C2)c1NC(=O)Cc1cc(F)cc(F)c1 [Compound 1.5, 2-(3,5-difluorophenyl)-N-[6-(7,8-dihydro-5H-1,6-naphthyridin-6-yl)-2-[(3R)-3-fluoropyrrolidin-1-yl]-4-methyl-3-pyridyl]-acetamide] | 190 nM | 101% | 
Cc1ccoc1C(=O)Nc1c(C)cc(N2CCc3ncccc3C2)nc1N1CC[C@@H](F)C1 [Compound 1.4, N-[6-(7,8-dihydro-5H-1,6-naphthyridin-6-yl)-2-[(3R)-3-fluoropyrrolidin-1-yl]-4-methyl-3-pyridyl]-3-methyl-furan-2-carboxamide] | 85 nM | 101% | 

The next lines start with the values.

EC50 (human Kv7.2+3) | Emax (human Kv7.2+3) | melting point | SMILES
1200 nM | 115% |  | Cc1cc(N2CCc3ncccc3C2)nc(N2CCC(F)(F)CC2)c1NC(=O)c1conc1C [Compound 1.11, N-[2-(4,4-difluoro-1-piperidyl)-6-(7,8-dihydro-5H-1,6-naphthyridin-6-yl)-4-methyl-3-pyridyl]-3-methyl-isoxazole-4-carboxamide]
2900 nM | 28% |  | Cc1cccnc1C(=O)Nc1c(C)cc(N2CCc3ncccc3C2)nc1N1CCC(F)(F)CC1 [Compound 1.15, N-[2-(4,4-difluoro-1-piperidyl)-6-(7,8-dihydro-5H-1,6-naphthyridin-6-yl)-4-methyl-3-pyridyl]-3-methyl-pyridine-2-carboxamide]
5400 nM | 116% |  | Cc1nc(C(=O)Nc2c(C)cc(N3CCc4ncccc4C3)nc2N2CCC(F)(F)CC2)c(C)o1 [Compound 1.16, N-[2-(4,4-difluoro-1-piperidyl)-6-(7,8-dihydro-5H-1,6-naphthyridin-6-yl)-4-methyl-3-pyridyl]-2,5-dimethyl-oxazole-4-carboxamide]
20 nM | 89% |  | CCc1ocnc1C(=O)Nc1c(C)cc(N2CCc3ncccc3C2)nc1N1CCC(F)(F)CC1 [Compound 1.14, N-[2-(4,4-difluoro-1-piperidyl)-6-(7,8-dihydro-5H-1,6-naphthyridin-6-yl)-4-methyl-3-pyridyl]-5-ethyl-oxazole-4-carboxamide]
6900 nM | 115% |  | Cc1cc(N2CCc3ncccc3C2)nc(N2CCC(F)(F)CC2)c1NC(=O)c1scnc1C [Compound 1.10, N-[2-(4,4-difluoro-1-piperidyl)-6-(7,8-dihydro-5H-1,6-naphthyridin-6-yl)-4-methyl-3-pyridyl]-4-methyl-thiazole-5-carboxamide]
65 nM | 100% |  | Cc1cc(N2CCc3ncccc3C2)nc(N2CCC(F)(F)CC2)c1NC(=O)c1ocnc1C [Compound 1.12, N-[2-(4,4-difluoro-1-piperidyl)-6-(7,8-dihydro-5H-1,6-naphthyridin-6-yl)-4-methyl-3-pyridyl]-4-methyl-oxazole-5-carboxamide]
50 nM | 105% |  | Cc1cc(N2CCc3ncccc3C2)nc(N2CCC(F)(F)CC2)c1NC(=O)c1ncoc1C [Compound 1.9, N-[2-(4,4-difluoro-1-piperidyl)-6-(7,8-dihydro-5H-1,6-naphthyridin-6-yl)-4-methyl-3-pyridyl]-5-methyl-oxazole-4-carboxamide]
73 nM | 34% |  | Cc1cc(N2CCc3ncccc3C2)nc(N2CCC(F)(F)CC2)c1NC(=O)c1ncoc1C1CC1 [Compound 1.18, 5-cyclopropyl-N-[2-(4,4-difluoro-1-piperidyl)-6-(7,8-dihydro-5H-1,6-naphthyridin-6-yl)-4-methyl-3-pyridyl]oxazole-4-carboxamide]
19 nM | 81% |  | Cc1ccoc1C(=O)Nc1c(C)cc(N2CCc3ncccc3C2)nc1N1CCC(F)(F)CC1 [Compound 1.6, N-[2-(4,4-difluoro-1-piperidyl)-6-(7,8-dihydro-5H-1,6-naphthyridin-6-yl)-4-methyl-3-pyridyl]-3-methyl-furan-2-carboxamide]
